In PubChem BioAssay (NCI):
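Method: 48-hour compound exposure of cells in 96-well plates, five concentrations, linear interpolation of endpoints. Abbreviation: GI50, concentration required for 50% inhibition of growth. TGI denotes the concentration required for complete inhibition of growth.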

Columns and labels:
Assay in all cases: DTP human tumour cell line panel, 48 h
[1] = system: IGROV1 ovarian
[2] = system: UO-31 renal
[3] = system: RXF 393 renal
[4] = system: TK-10 renal
[5] = system: HCC-2998 colon
[6] = system: OVCAR-4 ovarian
[7] = system: SK-MEL-5 melanoma
[8] = system: HS 578T breast
[9] = system: DU-145 prostate
[10] = system: SNB-75 CNS

| Compound | GI50 [1] [µM] | TGI [1] [µM] | GI50 [2] [µM] | TGI [2] [µM] | GI50 [3] [µM] | TGI [3] [µM] | GI50 [4] [µM] | TGI [4] [µM] | GI50 [5] [µM] | TGI [5] [µM] | GI50 [6] [µM] | TGI [6] [µM] | GI50 [7] [µM] | TGI [7] [µM] | GI50 [8] [µM] | TGI [8] [µM] | GI50 [9] [µM] | TGI [9] [µM] | GI50 [10] [µM] | TGI [10] [µM] |
| --- | --- | --- | --- | --- | --- | --- | --- | --- | --- | --- | --- | --- | --- | --- | --- | --- | --- | --- | --- | --- |
| N#CSc1c[nH]c2cccc(/C=C/C(=O)/C=C(O)/C=C/c3cccc4[nH]cc(SC#N)c34)c12 | 0.46 | 1.58 | 0.197 | 0.652 | 0.326 | 1 | 0.756 | 2.51 | 1.2 | 4.56 | 0.216 | 1.72 | 0.467 | 0.982 | 0.779 | 9.48 | 0.484 | 0.986 | 0.67 | 2.68 |
| CC(=O)Nc1ccc(S(=O)(=O)N2C(=O)CCC2C(=O)Nc2ccccc2)cc1 (stereo not given) | 2.32 | 26.9 | 0.55 | 16.5 | 3.48 | 13.9 | 1.91 | 13.5 | 0.645 | 5.62 | 0.698 | 10.8 | 0.367 | 5.31 | 2.71 | 36.2 | 3.46 | 19.2 | 1.63 | 6.86 |
| COc1cc(F)c(F)c(F)c1C(=O)c1cnc(NC2CCN(S(C)(=O)=O)CC2)nc1N | 1.12 | 21 | 1.6 | 13.4 | 0.534 | 1.98 | 1.6 | 24.7 | 2.87 | > 21.6 | 3.29 | > 25 | 0.986 | > 23.6 | 3.17 | 18.1 | 2.58 | > 22 | 3.65 | 8.75 |
| COc1ccc2c(c1)OCC1c3cc(OC)ccc3OC21 (stereo not given) | 49.5 | > 100 | 39 | > 100 | 58 | > 100 | > 100 | > 100 | 5.42 | 58 | 39.2 | > 100 | 28.4 | 86.1 | > 100 | > 100 | > 100 | > 100 | 47.3 | > 100 |
